Laboratory results as given in ChEMBL document CHEMBL1250468, “Synthesis of aryl-heteroaryl ureas (AHUs) based on 4-aminoquinoline and their evaluation against the insulin-like growth factor receptor (IGF-1R)” (Bioorg Med Chem, 2010).

target: Insulin-like growth factor 1 receptor (Homo sapiens, UniProt P08069); test: Inhibition of recombinant IGF1R by ELISA
Sequence (P08069 31-736 limits assumed): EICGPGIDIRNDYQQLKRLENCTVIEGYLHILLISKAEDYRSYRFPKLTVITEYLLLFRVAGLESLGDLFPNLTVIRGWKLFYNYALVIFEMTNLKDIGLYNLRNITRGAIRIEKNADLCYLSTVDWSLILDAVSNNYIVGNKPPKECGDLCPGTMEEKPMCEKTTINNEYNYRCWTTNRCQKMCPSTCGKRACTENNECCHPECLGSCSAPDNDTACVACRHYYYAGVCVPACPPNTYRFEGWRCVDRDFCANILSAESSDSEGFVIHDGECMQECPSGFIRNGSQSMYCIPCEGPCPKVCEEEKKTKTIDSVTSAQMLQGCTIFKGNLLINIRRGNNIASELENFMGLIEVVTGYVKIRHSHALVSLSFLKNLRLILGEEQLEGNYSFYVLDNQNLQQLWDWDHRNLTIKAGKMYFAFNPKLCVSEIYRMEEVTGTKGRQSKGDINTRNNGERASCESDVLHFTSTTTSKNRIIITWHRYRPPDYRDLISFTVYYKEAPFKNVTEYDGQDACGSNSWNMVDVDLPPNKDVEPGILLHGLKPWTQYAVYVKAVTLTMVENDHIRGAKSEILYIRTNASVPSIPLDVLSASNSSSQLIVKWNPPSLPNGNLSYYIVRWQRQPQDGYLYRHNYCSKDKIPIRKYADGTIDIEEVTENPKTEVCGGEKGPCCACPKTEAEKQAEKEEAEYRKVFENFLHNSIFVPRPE
Sequence (P08069 741-1367 limits assumed): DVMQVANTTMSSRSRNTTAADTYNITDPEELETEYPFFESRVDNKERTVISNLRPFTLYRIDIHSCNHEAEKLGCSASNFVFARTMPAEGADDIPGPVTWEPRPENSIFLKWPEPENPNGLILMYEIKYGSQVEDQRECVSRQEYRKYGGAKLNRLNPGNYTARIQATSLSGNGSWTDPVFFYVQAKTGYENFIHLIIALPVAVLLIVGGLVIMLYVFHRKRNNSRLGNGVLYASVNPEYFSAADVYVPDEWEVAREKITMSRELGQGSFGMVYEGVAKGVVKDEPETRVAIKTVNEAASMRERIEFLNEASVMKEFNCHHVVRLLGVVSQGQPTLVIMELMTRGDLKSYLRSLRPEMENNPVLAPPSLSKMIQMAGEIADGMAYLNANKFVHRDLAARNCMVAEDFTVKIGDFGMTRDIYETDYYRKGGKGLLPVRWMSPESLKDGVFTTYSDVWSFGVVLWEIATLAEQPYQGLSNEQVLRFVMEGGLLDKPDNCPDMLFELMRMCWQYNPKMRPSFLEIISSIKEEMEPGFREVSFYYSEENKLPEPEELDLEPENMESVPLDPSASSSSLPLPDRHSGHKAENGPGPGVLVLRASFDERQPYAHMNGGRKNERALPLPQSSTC

SMILES	IC50
O=C(Nc1ccc(Cl)cc1)Nc1cc(C(F)(F)F)nc2ccccc12	28.1 µM
O=C(Nc1ccc(OC(F)(F)F)cc1)Nc1cc(C(F)(F)F)nc2ccccc12	6.7 µM
O=C(Nc1ccc([N+](=O)[O-])cc1)Nc1cc(C(F)(F)F)nc2ccccc12	27.1 µM
O=C(Nc1ccc(-c2ncccn2)cc1)Nc1cc(C(F)(F)F)nc2ccccc12	19.3 µM
O=C(Nc1cccc(-c2ncccn2)c1)Nc1cc(C(F)(F)F)nc2ccccc12	> 30 µM
COc1ccc(Cl)cc1NC(=O)Nc1cc(Cl)nc2ccccc12	14.9 µM
COc1ccc(NC(=O)Nc2cc(Cl)nc3ccccc23)cc1Cl	> 30 µM
O=C(Nc1cccc(-c2ncccn2)c1)Nc1cc(Cl)nc2ccccc12	> 30 µM
COc1ccc(Cl)cc1NC(=O)Nc1cc(=O)[nH]c2ccccc12	6.5 µM
COc1ccc(Cl)cc1NC(=O)Nc1cc(C)nc2ncccc12	24.7 µM
COc1ccc(Cl)cc1NC(=O)Nc1cc(C)nc2c1CCCN2	20.5 µM
COc1ccc(Cl)cc1NC(=O)Nc1cc(C)nc2cnccc12	> 30 µM
COc1cc(OC)c(NC(=O)Nc2cc(C)nc3cnccc23)cc1Cl	> 30 µM

The next lines start with the values.

IC50	SMILES
> 30 µM	COc1ccc(NC(=O)Nc2cc(C(F)(F)F)nc3ccccc23)cc1
5.2 µM	Cc1cncc(Oc2ccc(NC(=O)Nc3cc(C(F)(F)F)nc4ccccc34)cc2)n1
> 30 µM	COc1ccc(NC(=O)Nc2cc(Cl)nc3ccccc23)cc1
21.1 µM	O=C(Nc1ccc(Cl)cc1)Nc1cc(Cl)nc2ccccc12
21.4 µM	O=C(Nc1ccc(OC(F)(F)F)cc1)Nc1cc(Cl)nc2ccccc12
> 30 µM	O=C(Nc1ccc(-c2ncccn2)cc1)Nc1cc(Cl)nc2ccccc12
> 30 µM	Cc1cncc(Oc2ccc(NC(=O)Nc3cc(Cl)nc4ccccc34)cc2)n1
12.5 µM	Cc1cncc(Oc2ccc(NC(=O)Nc3cc(C)nc4ncccc34)cc2)n1
> 30 µM	Cc1cc(NC(=O)Nc2ccc(Cl)cc2)c2ccccc2n1
> 30 µM	Cc1cc(NC(=O)Nc2ccc(-c3ncccn3)cc2)c2ccccc2n1
> 30 µM	Cc1cc(NC(=O)Nc2cccc(-c3ncccn3)c2)c2ccccc2n1
5.6 µM	Cc1cncc(Oc2ccc(NC(=O)Nc3cc(C)nc4ccccc34)cc2)n1
18.7 µM	COc1ccc(Cl)cc1NC(=O)Nc1cc(C)nc2ccccc12
> 30 µM	COc1ccc(NC(=O)Nc2cc(C)nc3ccccc23)cc1Cl
